Results from patent US7674793B2, “Tricyclic dihydropyrazines as potassium channel openers” (Janssen Pharmaceutica NV, priority 2006, dated 2010).

The compounds below were run against T1, KATP channels (Homo sapiens, UniProt O60706+Q14654) (assay: Potassium Channel Assay (FLIPR membrane potential dye, TE671 cells)). Details: percent response at 30 μM; TE671 human medulloblastoma cells; hyperpolarization seen as decrease in fluorescent intensity, room temperature.
T1 construct: TE671 human medulloblastoma cells were obtained from ATCC; host or cells: TE671 human medulloblastoma cells
Format: cell-based
Set-up: key: Active: A compound was designated as active if it produced greater than or equal to 10% response at 30 μM; Inactive: A compound was designated as inactive if it produced less than 10% response at 30 μM
Procedure: TE671 human medulloblastoma cells were obtained from ATCC and grown in Dulbecco's modified Eagle's medium (DMEM) supplemented with 10% fetal bovine serum, 100 U/ml penicillin and 100 U/ml streptomycine.
The day before testing, the cells were plated in black 96-well plates at 50 K/well. On the day of testing, the growth media was removed, then 100 μl of FLIPR buffer (20 mM HEPES, 120 mM NaCl, 2 mM KCl, 2 mM CaCl2, 1 mM MgCl2, 5 mM Glucose) and 100 μl of Membrane Potential Assay Dye (Molecular Devices) dissolved in FLIPR buffer were added to each well. The cells were incubated at room temperature for 15 to 30 min.
The effect of test compounds on KATP channels were evaluated on a fluorometric imaging plate reader (FLIPR, Molecular Devices) at room temperature. After a baseline period, 50 μl of 5× stock solution of test compound prepared in FLIPR buffer was added and fluorescent change was monitored for 3 minutes. After this reading, glyburide, a KATP channel blocker, was added to a final concentration of 5 μM to check the specificity of the test compound as a KATP channel openers. Hyperpolarization resulting from KATP channel opening was observed as a decrease in fluorescent intensity.
Representative compounds of the present invention were tested according to the procedure described above, with results as listed in Table BIO1 below. Test compound activity was determined as the percent. A compound was designated as active if it produced greater than or equal to 10% response at 30 μM.

T1 sequence (O60706 1-1549 isoform O60706-2): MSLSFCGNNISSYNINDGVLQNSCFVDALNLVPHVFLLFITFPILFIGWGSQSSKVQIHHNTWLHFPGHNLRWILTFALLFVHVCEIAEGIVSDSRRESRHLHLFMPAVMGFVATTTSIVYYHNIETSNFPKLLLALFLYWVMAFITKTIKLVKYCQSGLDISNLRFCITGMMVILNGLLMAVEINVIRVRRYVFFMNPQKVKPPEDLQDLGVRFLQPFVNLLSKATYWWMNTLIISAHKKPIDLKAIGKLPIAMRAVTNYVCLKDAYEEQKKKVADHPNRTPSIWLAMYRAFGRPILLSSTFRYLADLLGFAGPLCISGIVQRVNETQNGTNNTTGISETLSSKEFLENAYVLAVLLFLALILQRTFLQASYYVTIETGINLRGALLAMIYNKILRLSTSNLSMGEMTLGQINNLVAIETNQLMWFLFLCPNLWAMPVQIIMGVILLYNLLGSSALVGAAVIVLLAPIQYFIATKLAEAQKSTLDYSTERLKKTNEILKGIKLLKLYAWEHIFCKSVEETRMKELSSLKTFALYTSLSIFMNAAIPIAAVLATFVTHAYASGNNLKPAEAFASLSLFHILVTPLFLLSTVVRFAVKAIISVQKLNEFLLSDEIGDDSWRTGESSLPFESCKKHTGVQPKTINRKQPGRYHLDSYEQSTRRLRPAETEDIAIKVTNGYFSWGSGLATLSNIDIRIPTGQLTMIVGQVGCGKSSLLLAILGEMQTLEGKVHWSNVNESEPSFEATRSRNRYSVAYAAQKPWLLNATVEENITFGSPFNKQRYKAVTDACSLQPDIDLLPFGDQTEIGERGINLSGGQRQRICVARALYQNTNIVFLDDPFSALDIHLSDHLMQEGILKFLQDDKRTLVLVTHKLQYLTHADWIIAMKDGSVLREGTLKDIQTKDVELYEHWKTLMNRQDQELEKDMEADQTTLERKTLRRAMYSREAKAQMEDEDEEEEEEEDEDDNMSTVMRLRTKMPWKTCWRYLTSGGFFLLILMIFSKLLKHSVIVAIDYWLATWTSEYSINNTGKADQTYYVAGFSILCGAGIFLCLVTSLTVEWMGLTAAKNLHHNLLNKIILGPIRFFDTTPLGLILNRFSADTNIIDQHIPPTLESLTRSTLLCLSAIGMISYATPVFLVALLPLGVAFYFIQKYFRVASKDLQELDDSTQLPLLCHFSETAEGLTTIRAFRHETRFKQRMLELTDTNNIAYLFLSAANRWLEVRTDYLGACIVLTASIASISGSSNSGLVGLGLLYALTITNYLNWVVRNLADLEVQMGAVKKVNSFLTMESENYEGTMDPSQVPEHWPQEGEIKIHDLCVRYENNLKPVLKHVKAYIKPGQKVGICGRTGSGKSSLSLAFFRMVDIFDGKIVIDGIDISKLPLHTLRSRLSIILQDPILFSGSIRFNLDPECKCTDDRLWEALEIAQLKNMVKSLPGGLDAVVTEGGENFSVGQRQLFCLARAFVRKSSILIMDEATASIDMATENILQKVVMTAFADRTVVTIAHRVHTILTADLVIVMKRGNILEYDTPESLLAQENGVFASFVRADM
T1 sequence (Q14654 whole entry): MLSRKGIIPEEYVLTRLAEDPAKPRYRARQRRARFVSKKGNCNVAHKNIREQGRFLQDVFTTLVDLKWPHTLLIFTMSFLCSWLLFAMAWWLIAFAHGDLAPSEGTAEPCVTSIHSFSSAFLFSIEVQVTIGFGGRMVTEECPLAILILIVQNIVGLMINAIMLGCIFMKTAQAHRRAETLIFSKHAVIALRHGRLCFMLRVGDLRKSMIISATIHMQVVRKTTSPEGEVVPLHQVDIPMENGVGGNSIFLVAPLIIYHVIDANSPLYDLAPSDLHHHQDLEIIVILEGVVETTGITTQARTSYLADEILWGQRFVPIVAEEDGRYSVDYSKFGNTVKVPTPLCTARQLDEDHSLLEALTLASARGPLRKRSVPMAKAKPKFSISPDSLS

Response	SMILES
Active	N#Cc1cccc(N(C2=C(O)CCC2=O)C2=C(O)CCC2=O)c1 [compound 5]
Active	O=C1CCCC(O)=C1N(C1=C(O)CCCC1=O)c1cccc(I)c1 [compound 3]
Active	O=C1CCCC(O)=C1N(C1=C(O)CCCC1=O)c1ccc(F)c(F)c1 [compound 2]
